No end group written: not given here.

The first experiment deals with Arabidopsis leaves. The experiment is described as follows: Ethylene formation in Arabidopsis leaves / leaf discs. Format: cell-based, Arabidopsis thaliana.
Conditions: not given
The protocol: For MAPK activity assays, infiltrated plant material was harvested after 15 minutes and frozen in liquid nitrogen before used for protein extraction in 20 mM Tris-HCl pH 7.5, 150 mM NaCl, 1 mM EDTA, 1% Triton X-100, 0,1% SDS, 5 mM DTT, Complete Protease Inhibitor Mini, EDTA-free (Roche, Mannheim), PhosStop Phosphatase Inhibitor Cocktail (Roche, Mannheim). After pelleting the cell debris (10 min, 16000 g, 4°C), the supernatant (30 µg protein) was separated on a 10% SDS-PAGE and transferred to a nitrocellulose membrane and activated MAPK6, 3 and 4 were detected by western blotting using the anti phospho p44/42-MAPK antibody from rabbit (Cell Signaling Technology, The Netherlands). For ROS burst measurements two leaf pieces, floated on ddH2O overnight, were placed in one well of a 96-well plate, containing 100 µl of a 20 µM L-012 and 0.5 µg ml^−1 peroxidase solution. Background was measured shortly in a 96-well Luminometer, (Mithras LB 940, Berthold Technologies) before elicitation with a peptide solution or control treatment respectively. The detection of ethylene was performed as described. Leaf pieces were incubated in 20 mM MES buffer, pH 5.7. To visualize callose apposition, leaves were treated as described and harvested 24 hours after infiltration of a peptide solution. Quantification of callose was performed by counting selected pixels and calculated in % relative to the respective image section of the leaf surface. Pictures were analyzed using Photoshop CS6 Magic tool, hereby removing background and leaf-veins within a certain color range. (Use: white, Mode: normal, Opacity: 100%). Medium alkalinization in suspension-cultured Arabidopsis cells and detection of GUS enzyme activity in PR1::GUS transgenic Arabidopsis plants were performed as described previously, [43]. Surface-sterilized Arabidopsis Col-0 seeds were grown in ½ MS liquid medium supplemented with 1 µM of nlp20 (PpNLP) peptide or its orthologs respectively, and flg22 or H2O serving as controls. Root length of two weeks-old seedlings was determined upon transfer onto agar plates.
On to YSWYFPKDSPVTGLGHR [peptide 12], for which the “elicitor activity (ethylene production in Arabidopsis leaf disks), in words” value was “inactive”.

Still in this experiment, the particulars now being: synthetic peptides; Arabidopsis leaves; at least six different peptide concentrations; means ± SD of three replicates.
The sequence AIMYSWYFPKDSPVTGLAHRHDWE [compound 32] returned an EC50 of 220 ± 78 nM.

For AIMYSWYFPKDSPVTGLGHAHDWE [compound 34], the concentration giving a half-maximal response (EC50) was found to be 283 ± 40 nM.

WIMYSWYFPKDSPVTGLGHRHDWE [compound 15] came in with an EC50 of 55 ± 24 nM.

AIMYSWYFPKDSPVTGLGHRHAWE [compound 36] had an EC50 of 6.2 ± 5.6 nM.

Regarding AIMYSWYFPADSPVTGLGHRHDWE [compound 24], the concentration for a half-maximal effect (EC50) stood at 89 ± 31 nM.

Regarding MYSWYFPKDSPVTGLGHR [compound 11], the concentration giving a half-maximal response (EC50) stood at 1550 ± 328 nM.

AIMYSWYFAKDSPVTGLGHRHDWE [compound 23] registered an EC50 of 307 ± 153 nM.

Turning to AAMYSWYFPKDSPVTGLGHRHDWE [compound 16], the EC50 was 1570 ± 252 nM.

Consider KDSPVTGLGHRHDWE [compound 5], for which the EC50 was greater than 100000 nM.

In turn, AIMYSWYFPKDSPVAGLGHRHDWE [compound 29] gave an EC50 of 25 ± 15 nM.

Consider AIMYSWYFPKDSPVTGLGHRADWE [compound 35], for which a half-maximal effect (EC50) was put at 7.7 ± 1.7 nM.

AIMYSWYFPKDSPATGLGHRHDWE [compound 28] gave a half-maximal effective concentration (EC50) of 30 ± 11 nM.

The sequence AIMYSWAFPKDSPVTGLGHRHDWE [compound 21] registered an EC50 of 2630 ± 208 nM.

With SWYFPKDSPVTGLGHR [compound 14], the concentration for a half-maximal effect (EC50) was greater than 100000 nM.

YSWYFPKDSPVTGLGHR [peptide 12] yielded a 50% effective concentration (EC50) greater than 50000 nM.

In the case of AIAYSWYFPKDSPVTGLGHRHDWE [compound 17], the response was half-maximal at 42 ± 9 nM (EC50).

AIMYSWYFPKDAPVTGLGHRHDWE [compound 26] came in with an EC50 of 57 ± 28 nM.

In the case of SWYFPKDSPVTGLGH [peptide 4], the concentration giving a half-maximal response (EC50) was greater than 100000 nM.

Sequence IMYSWYFPKDSPVTGLGHR [compound 10] came in with an EC50 of 133 ± 10 nM.

YAIMYSWYFPKDSPV [compound 3] came in with a concentration for a half-maximal effect (EC50) of 217 ± 65 nM.

RVATYNGVYAIMYSWYFPKD [compound 7] returned an EC50 of 84 ± 11 nM.

Sequence AIMYSWYFPKDSPVTGLGHRHDAE [compound 37] gave a concentration giving a half-maximal response (EC50) of 7.3 ± 1.8 nM.

Consider AIMYSWYFPKDSPVTGAGHRHDWE [compound 31], for which a half-maximal response (EC50) required 24 ± 8 nM.

Sequence AIMYSWYFPKDSAVTGLGHRHDWE [compound 27] returned an EC50 of 76 ± 45 nM.

Sequence AIMYSWYFPKDSPVTGLGARHDWE [compound 33] registered a concentration giving a half-maximal response (EC50) of 48 ± 34 nM.

On to AIMYSWYFPKDSPVTALGHRHDWE [compound 30], for which it took 23 ± 7.6 nM to reach a half-maximal effect (EC50).

For AIMASWYFPKDSPVTGLGHRHDWE [compound 18], the half-maximal effective concentration (EC50) was found to be 1500 ± 436 nM.

AIMYSWYFPKDSPVTGLGHRHDWA [compound 38] registered an EC50 of 7.3 ± 1.7 nM.

AIMYAWYFPKDSPVTGLGHRHDWE [compound 19] came in with an EC50 of 18 ± 10 nM.

AIMYSWYAPKDSPVTGLGHRHDWE [compound 22] gave a concentration giving a half-maximal response (EC50) of 5.4 ± 3 nM.

In turn, AIMYSWYFPKASPVTGLGHRHDWE [compound 25] returned an EC50 of 97 ± 36 nM.

These data come from publication PMC4223075, “A Conserved Peptide Pattern from a Widespread Microbial Virulence Factor Triggers Pattern-Induced Immunity in Arabidopsis” (PLoS Pathogens, 2014).
